#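 Cells were grown in 96-well plates and exposed to each compound for 48 hours at five concentrations; endpoints were interpolated linearly between bracketing concentrations, or set to the highest concentration if not reached. GI50 marks 50% less growth.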 Calls of active or inactive are those of the source. No stated cut-off is given here; in the data, active = GI50 up to about 1.1 µM and inactive = higher.
# How the values were obtained:
# Assay in all cases: growth of human tumour cells (NCI), 48 h
# RPMI-8226 = tested on: RPMI-8226
# MDA-MB-231 = tested on: MDA-MB-231
# EKVX = tested on: EKVX
# NCI-H226 = tested on: NCI-H226
# K562 = tested on: K562
# LOX IMVI = tested on: LOX IMVI
# HL-60 = tested on: HL-60
# OVCAR-5 = tested on: OVCAR-5
# SK-MEL-2 = tested on: SK-MEL-2
# DU-145 = tested on: DU-145
# PC-3 = tested on: PC-3
# MDA-MB-435 = tested on: MDA-MB-435
# OVCAR-3 = tested on: OVCAR-3
# HCC 2998 = tested on: HCC 2998
# SK-MEL-5 = tested on: SK-MEL-5
# MCF7 = tested on: MCF7
# OVCAR-8 = tested on: OVCAR-8
# A549 = tested on: A549
# T47D = tested on: T47D
# ACHN = tested on: ACHN
# HCT-116 = tested on: HCT-116
# NCI-H522 = tested on: NCI-H522
# SN12C = tested on: SN12C
# M14 = tested on: M14
# OVCAR-4 = tested on: OVCAR-4
# BT-549 = tested on: BT-549
# Hs-578T = tested on: Hs-578T
# SF-268 = tested on: SF-268
# SF-539 = tested on: SF-539
# NCI/ADR-RES = tested on: NCI/ADR-RES
# CAKI-1 = tested on: CAKI-1
# COLO 205 = tested on: COLO 205
# HT-29 = tested on: HT-29
# CCRF-CEM = tested on: CCRF-CEM
# SK-MEL-28 = tested on: SK-MEL-28
# U-251 = tested on: U-251
# SNB-19 = tested on: SNB-19
# Malme-3M = tested on: Malme-3M
# MDA-N = tested on: MDA-N
# UACC-62 = tested on: UACC-62
# KM12 = tested on: KM12
# HCT-15 = tested on: HCT-15
# A498 = tested on: A498
# UACC-257 = tested on: UACC-257
# SK-OV-3 = tested on: SK-OV-3
# NCI-H23 = tested on: NCI-H23
# 786-0 = tested on: 786-0
# SF-295 = tested on: SF-295
# NCI-H460 = tested on: NCI-H460
# UO-31 = tested on: UO-31
# IGROV-1 = tested on: IGROV-1
# HOP-92 = tested on: HOP-92
# TK-10 = tested on: TK-10
# SW-620 = tested on: SW-620
smiles,measurement,setting,value
Cc1ccc(OCC2OC(n3cnc4c(N(C)C)nc(Br)nc43)CC2Oc2ccc(C)cc2)cc1 (centres undefined),GI50,RPMI-8226,58.2 µM (inactive)
same,GI50,MDA-MB-231,> 100 µM (inactive)
same,GI50,EKVX,> 100 µM (inactive)
same,GI50,NCI-H226,> 100 µM (inactive)
same,GI50,K562,> 100 µM (inactive)
same,GI50,LOX IMVI,> 100 µM (inactive)
same,GI50,HL-60,> 100 µM (inactive)
same,GI50,OVCAR-5,> 100 µM (inactive)
same,GI50,SK-MEL-2,> 100 µM (inactive)
same,GI50,DU-145,> 100 µM (inactive)
same,GI50,PC-3,> 100 µM (inactive)
same,GI50,MDA-MB-435,> 100 µM (inactive)
same,GI50,OVCAR-3,> 100 µM (inactive)
same,GI50,HCC 2998,> 100 µM (inactive)
same,GI50,SK-MEL-5,> 100 µM (inactive)
same,GI50,MCF7,> 100 µM (inactive)
same,GI50,OVCAR-8,> 100 µM (inactive)
same,GI50,A549,> 100 µM (inactive)
same,GI50,T47D,> 100 µM (inactive)
same,GI50,ACHN,> 100 µM (inactive)
same,GI50,HCT-116,> 100 µM (inactive)
same,GI50,NCI-H522,> 100 µM (inactive)
same,GI50,SN12C,> 100 µM (inactive)
same,GI50,M14,> 100 µM (inactive)
same,GI50,OVCAR-4,> 100 µM (inactive)
same,GI50,BT-549,> 100 µM (inactive)
same,GI50,Hs-578T,> 100 µM (inactive)
same,GI50,SF-268,> 100 µM (inactive)
same,GI50,SF-539,> 100 µM (inactive)
same,GI50,NCI/ADR-RES,> 100 µM (inactive)
same,GI50,CAKI-1,> 100 µM (inactive)
same,GI50,COLO 205,> 100 µM (inactive)
same,GI50,HT-29,> 100 µM (inactive)
same,GI50,CCRF-CEM,> 100 µM (inactive)
same,GI50,SK-MEL-28,> 100 µM (inactive)
same,GI50,U-251,> 100 µM (inactive)
same,GI50,SNB-19,> 100 µM (inactive)
same,GI50,Malme-3M,> 100 µM (inactive)
same,GI50,MDA-N,> 100 µM (inactive)
same,GI50,UACC-62,> 100 µM (inactive)
same,GI50,KM12,> 100 µM (inactive)
same,GI50,HCT-15,> 100 µM
same,GI50,A498,> 100 µM (inactive)
same,GI50,UACC-257,> 100 µM (inactive)
same,GI50,SK-OV-3,> 100 µM (inactive)
same,GI50,NCI-H23,> 100 µM (inactive)
same,GI50,786-0,> 100 µM (inactive)
same,GI50,SF-295,> 100 µM (inactive)
same,GI50,NCI-H460,> 100 µM (inactive)
same,GI50,UO-31,> 100 µM (inactive)
same,GI50,IGROV-1,> 100 µM (inactive)
same,GI50,HOP-92,> 100 µM (inactive)
same,GI50,TK-10,> 100 µM (inactive)
same,GI50,SW-620,> 100 µM (inactive)

# From ChEMBL document CHEMBL1201862, “PubChem BioAssay data set” (2004)
